Patent publication US10954214B2 (Janssen Pharmaceutica NV, priority 2016, dated 2021)

How the values were obtained:
TMD8 cells = experiment: 4-day proliferation assay, TMD8; format: cell-based; conditions: Homo sapiens, 96 h, 4 days incubation, CellTiterGLO, read-out: Anti-proliferation: TMD-8 IC50
Outline: (§1)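 TMD8 and OCI-Ly3 cells were seeded at 10,000 per well and grown 4 days at 37° C, 5% CO2 without beta-mercaptoethanol. Viability was read by CellTiter-Glo luminescence. IC50 and Hill slope were fitted relative to the low control median.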

OCI-Ly3 cells = experiment: 4-day proliferation assay, OCI-Ly3; format: cell-based, human; conditions: Homo sapiens, 96 h, 4 days incubation, CellTiterGLO, read-out: Anti-proliferation: OCI-LY-3 IC50
Outline: as §1

[1] = molecular target: full-length MALT1 protein (Strep-MALT1(1-824)-His) (Homo sapiens (Human), UniProt Q9UDY8); experiment: MALT1 Biochemical Protease Assay (Ac-LRSR-AMC substrate); conditions: 10 nM FL MALT1, 200 μM Ac-LRSR-AMC, 4 h at RT; read-out: MALT1_Biochemical activity (Ac-LRSR-amc) IC50
Chain of full-length MALT1 protein (Strep-MALT1(1-824)-His) (Q9UDY8 whole entry): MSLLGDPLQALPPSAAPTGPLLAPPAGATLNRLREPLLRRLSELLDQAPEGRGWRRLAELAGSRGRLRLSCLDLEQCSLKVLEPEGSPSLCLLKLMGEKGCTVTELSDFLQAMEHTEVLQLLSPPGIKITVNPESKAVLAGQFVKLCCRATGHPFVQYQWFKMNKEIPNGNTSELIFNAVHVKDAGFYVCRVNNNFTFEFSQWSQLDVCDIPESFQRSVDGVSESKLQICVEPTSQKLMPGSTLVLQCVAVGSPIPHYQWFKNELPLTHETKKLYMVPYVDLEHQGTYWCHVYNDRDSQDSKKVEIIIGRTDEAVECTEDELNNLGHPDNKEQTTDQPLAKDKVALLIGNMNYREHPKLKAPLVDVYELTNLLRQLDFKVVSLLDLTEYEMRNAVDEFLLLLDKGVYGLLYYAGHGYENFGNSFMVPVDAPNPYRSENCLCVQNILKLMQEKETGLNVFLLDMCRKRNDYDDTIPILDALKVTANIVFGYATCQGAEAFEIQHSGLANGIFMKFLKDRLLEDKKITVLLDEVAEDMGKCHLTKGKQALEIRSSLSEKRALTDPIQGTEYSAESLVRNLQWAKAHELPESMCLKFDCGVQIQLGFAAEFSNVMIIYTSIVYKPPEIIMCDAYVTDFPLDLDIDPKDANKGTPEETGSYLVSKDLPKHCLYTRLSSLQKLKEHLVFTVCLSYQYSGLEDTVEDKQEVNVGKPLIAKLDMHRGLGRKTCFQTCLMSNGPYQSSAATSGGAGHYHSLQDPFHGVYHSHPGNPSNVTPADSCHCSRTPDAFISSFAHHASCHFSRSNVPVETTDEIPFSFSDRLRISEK
Outline: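 Full-length MALT1 pre-incubated with compounds (30 μM to 0.5 nM, 11 threefold steps) for 50 min at RT. After Ac-LRSR-AMC was added, the reaction ran 4 h at RT and AMC fluorescence was read. IC50 and Hill slope from curve fitting against no-enzyme and no-compound controls.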

[2] = test system: IL10 secretion by TMD8 ABC-DLBCL cells; experiment: Human IL10 Mesoscale assay (TMD-8); format: cell-based; conditions: Homo sapiens, TMD8; TMD-8 cells, 24 h
Outline: (§2)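 100,000 cells/well treated with compound in 9 twofold steps from 15 μM to 58.6 nM (0.3% DMSO) for 24 h at 37° C; supernatant cytokine measured by MSD electrochemiluminescence sandwich immunoassay. DMSO wells set maximum signal, BTK inhibitor RN486 (30 nM to 131 pM) set maximum inhibition.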

[3] = test system: IL6 secretion by OCI-LY3 ABC-DLBCL cells; experiment: Human IL6 Mesoscale assay (OCI-LY3); format: cell-based; conditions: Homo sapiens, 24 h
Outline: as §2

[4] = test system: IL10 secretion by OCI-LY3 ABC-DLBCL cells; experiment: Human IL10 Mesoscale assay (OCI-LY3); format: cell-based; conditions: Homo sapiens, 24 h
Outline: as §2

[5] = test system: IL6 secretion by TMD8 ABC-DLBCL cells; experiment: Human IL6 Mesoscale assay (TMD-8); format: cell-based; conditions: Homo sapiens, TMD8; TMD-8 cells, 24 h
Outline: as §2

SMILES	IC50 (OCI-Ly3 cells) [nM]	IC50 [1] [nM]	IC50 [2] [nM]	IC50 [3] [nM]	IC50 [4] [nM]	IC50 [5] [nM]	IC50 (TMD8 cells) [nM]
O=C(Nc1cnc(-n2nccn2)c(Cl)c1)c1cnn(-c2cccc3scnc23)c1C(F)(F)F [Cpd 306, 1-(benzo[d]thiazol-4-yl)-N-(5-chloro-6-(2H-1,2,3-triazol-2-yl)pyridin-3-yl)-5-(trifluoromethyl)-1H-pyrazole-4-carboxamide]	540	58	> 3020	> 3020	2630	> 3020	1510
CN(C)Cc1cnn(-c2ncc(NC(=O)c3cnn(-c4cccc5ncccc45)c3C(F)(F)F)cc2Cl)n1 [Cpd 137, N-(5-chloro-6-(4-((dimethylamino)methyl)-2H-1,2,3-triazol-2-yl)pyridin-3-yl)-1-(quinolin-5-yl)-5-(trifluoromethyl)-1H-pyrazole-4-carboxamide]	819	23	200	26	17	170	2400
N#Cc1cc(NC(=O)c2cnn(-c3ncnc4ccsc34)c2C(F)(F)F)cnc1-n1nccn1 [Cpd 315, N-(5-cyano-6-(2H-1,2,3-triazol-2-yl)pyridin-3-yl)-1-(thieno[3,2-d]pyrimidin-4-yl)-5-(trifluoromethyl)-1H-pyrazole-4-carboxamide]	1080	33	339	95	132	447	6760
O=C(Nc1cnc(-n2nccn2)c(Cl)c1)c1cnn(-c2cccc3ncsc23)c1C(F)(F)F [Cpd 153, 1-(benzo[d]thiazol-7-yl)-N-(5-chloro-6-(2H-1,2,3-triazol-2-yl)pyridin-3-yl)-5-(trifluoromethyl)-1H-pyrazole-4-carboxamide]	265	12	162	54	81	141	3800
NC(=O)c1ncc(-n2ncc(C(=O)Nc3cnc(-n4nccn4)c(Cl)c3)c2C(F)(F)F)c2ccccc12 [Cpd 387, 4-(4-((5-chloro-6-(2H-1,2,3-triazol-2-yl)pyridin-3-yl)carbamoyl)-5-(trifluoromethyl)-1H-pyrazol-1-yl)isoquinoline-1-carboxamide]	692	30	–	141	95	–	2190
N#Cc1cc(NC(=O)c2cnn(-c3ccnc4ccccc34)c2C(F)(F)F)ccc1-n1nccn1	411	–	100	34	40	110	3800
N#Cc1cnn(-c2ncc(NC(=O)c3cnn(-c4cccc5ncccc45)c3C(F)(F)F)cc2Cl)n1 [Cpd 179, N-(5-chloro-6-(4-cyano-2H-1,2,3-triazol-2-yl)pyridin-3-yl)-1-(quinolin-5-yl)-5-(trifluoromethyl)-1H-pyrazole-4-carboxamide]	763	42	–	288	174	–	1950
N#Cc1cc(NC(=O)c2cnn(-c3ccc(N)c4ccccc34)c2C(F)(F)F)cnc1-n1nccn1 [Cpd 132, 1-(4-aminonaphthalen-1-yl)-N-(5-cyano-6-(2H-1,2,3-triazol-2-yl)pyridin-3-yl)-5-(trifluoromethyl)-1H-pyrazole-4-carboxamide]	571	19	–	141	95	–	7760
O=C(Nc1cc(Cl)c(-n2nccn2)cc1F)c1cnn(-c2cccc3c(=O)[nH]ccc23)c1C(F)(F)F [Cpd 172, N-(5-chloro-2-fluoro-4-(2H-1,2,3-triazol-2-yl)phenyl)-1-(1-oxo-1,2-dihydroisoquinolin-5-yl)-5-(trifluoromethyl)-1H-pyrazole-4-carboxamide]	504	69	–	204	158	–	4790
N#Cc1cc(NC(=O)c2cnn(-c3cccc4scnc34)c2C(F)(F)F)cnc1-n1nccn1 [Cpd 316, 1-(benzo[d]thiazol-4-yl)-N-(5-cyano-6-(2H-1,2,3-triazol-2-yl)pyridin-3-yl)-5-(trifluoromethyl)-1H-pyrazole-4-carboxamide]	1450	37	–	251	182	–	3090

Further lines, with some results ahead:

IC50 (OCI-Ly3 cells) [nM]	IC50 [1] [nM]	IC50 [2] [nM]	IC50 [3] [nM]	IC50 [4] [nM]	IC50 [5] [nM]	SMILES	IC50 (TMD8 cells) [nM]
1210	12	46	13	10	54	O=C(Nc1cnc(-n2ncc(CO)n2)c(Cl)c1)c1cnn(-c2cccc3c(=O)[nH]ccc23)c1C(F)(F)F [Cpd 115, N-(5-chloro-6-(4-(hydroxymethyl)-2H-1,2,3-triazol-2-yl)pyridin-3-yl)-1-(1-oxo-1,2-dihydroisoquinolin-5-yl)-5-(trifluoromethyl)-1H-pyrazole-4-carboxamide]	20000
344	15	25	18	18	13	O=C(Nc1cnc(-n2nccn2)c(Cl)c1)c1cnn(-c2cccc3c(=O)[nH]ccc23)c1C(F)(F)F [Cpd 116, N-(5-chloro-6-(2H-1,2,3-triazol-2-yl)pyridin-3-yl)-1-(1-hydroxyisoquinolin-5-yl)-5-(trifluoromethyl)-1H-pyrazole-4-carboxamide]	6920
179	16	123	18	14	120	O=C(Nc1ccc(-n2nccn2)c(Cl)c1)c1cnn(-c2cccc3c(=O)[nH]ccc23)c1C(F)(F)F [Cpd 129, N-(3-chloro-4-(2H-1,2,3-triazol-2-yl)phenyl)-1-(1-oxo-1,2-dihydroisoquinolin-5-yl)-5-(trifluoromethyl)-1H-pyrazole-4-carboxamide]	2460
2800	42	–	589	427	–	Nc1cnnn1-c1ncc(NC(=O)c2cnn(-c3cccc4c(=O)[nH]ccc34)c2C(F)(F)F)cc1Cl [Cpd 178, N-(6-(5-amino-1H-1,2,3-triazol-1-yl)-5-chloropyridin-3-yl)-1-(1-oxo-1,2-dihydroisoquinolin-5-yl)-5-(trifluoromethyl)-1H-pyrazole-4-carboxamide]	> 20000
